Data reported in patent US12110289B2, “Heterocyclic compounds, preparation methods and uses thereof” (InventisBio Co., Ltd., priority 2020, dated 2024).
Like-named read-outs stand apart in the source and are kept apart here.

System: Lung cancer cell line NCI-H358 containing KRas G12C mutation
Experiment: Assay for cell proliferation (Cell-titer Glo, 5 days)
Format: cell-based, human
Details: for IC50: NCI-H358, 5 days, Cell-titer Glo, read-out: IC50 (nM), Inhibition of NCI-H358 Cell Proliferation
Description: One hundred fifty microliter (150 μL) of media containing 2000 cells per well were seeded into each well of a 96-well culture plate and left to attach overnight in a 37° C. incubator with 5% CO2. Diluted compounds of 0.75 μL for each well were added by liquid handler at a final concentration of 0.5% DMSO. Cells were treated for 5 days in the incubator. Cell-titer Glo (CTG) kit (Promega) was used to assess cell proliferation. Of note, 120 μL of CTG reagent was added to each well and incubated at RT for 10 minutes.

| Structure (SMILES) | IC50 (Homo sapiens, NCI-H358, 120 h) | other results |
| --- | --- | --- |
| C=CC(=O)N1CCN(c2nc(=O)n(-c3c(C4CC4)nc(OC)nc3C3CC3)c3nc(-c4c(N)cccc4F)c(F)cc23)[C@@H](C)C1 [Compound 74] | 5.7 nM |  |
| C=CC(=O)N1CCN(c2nc(=O)n(-c3c(C(C)C)nc(C)nc3C(C)C)c3nc(-c4c(O)cccc4F)c(F)cc23)[C@@H](C)C1 [Compound 77] | 8.6 nM |  |
| C=CC(=O)N1CCN(c2nc(=O)n(-c3c(C(C)C)nc(C)nc3C(C)C)c3nc(-c4c(N)cccc4F)c(F)cc23)[C@@H](C)C1 [Compound 78] | 10.4 nM | fold more potent: 2-amino-6-fluoro-phenyl compound vs. corresponding 2-fluoro-phenyl compound at R8 (NCI-H358 IC50 comparison): only slightly more potent |
| C=CC(=O)N1C[C@H](C)N(c2nc(=O)n(-c3c(C4CC4)nc(OC)nc3C3CC3)c3nc(-c4c(O)cccc4F)c(F)cc23)C[C@H]1C [Compound 79] | 12.9 nM |  |
| C=CC(=O)N1C[C@H](C)N(c2nc(=O)n(-c3c(C4CC4)nc(OC)nc3C3CC3)c3nc(-c4c(N)cccc4F)c(F)cc23)C[C@H]1C [Compound 80] | 8.1 nM |  |
| C=CC(=O)N1CCN(c2nc(=O)n(-c3c(C)cc(OC)nc3C(C)C)c3nc(-c4c(O)cccc4F)c(F)cc23)[C@@H](C)C1 [Compound 81] | 35.9 nM |  |
| C=CC(=O)N1CCN(c2nc(=O)n(-c3c(C(C)C)nc(N4CCNCC4)nc3C(C)C)c3nc(-c4c(O)cccc4F)c(Cl)cc23)[C@@H](C)C1 [Compound 82] | 10.8 nM |  |
| C=CC(=O)N1CCN(c2nc(=O)n(-c3c(C(C)C)nc(N4CCNCC4)nc3C(C)C)c3nc(-c4c(N)cccc4F)c(Cl)cc23)[C@@H](C)C1 [Compound 83] | 5.9 nM |  |
| C=CC(=O)N1C[C@H](C)N(c2nc(=O)n(-c3c(C(C)C)nc(N4CCNCC4)nc3C(C)C)c3nc(-c4ccccc4F)c(Cl)cc23)C[C@H]1C [Compound 84] | 6.9 nM |  |
| C=CC(=O)N1C[C@H](C)N(c2nc(=O)n(-c3c(C4CC4)nc(N4CCNCC4)nc3C3CC3)c3nc(-c4ccccc4F)c(Cl)cc23)C[C@H]1C [Compound 85] | 9.7 nM |  |
| C=CC(=O)N1C[C@H](C)N(c2nc(=O)n(-c3c(C4CC4)nc(N4CCNCC4)nc3C3CC3)c3nc(-c4c(O)cccc4F)c(Cl)cc23)C[C@H]1C [Compound 86] | 8.6 nM |  |
| C=CC(=O)N1C[C@H](C)N(c2nc(=O)n(-c3c(C(C)C)nc(N4CCNCC4)nc3C(C)C)c3nc(-c4c(N)cccc4F)c(Cl)cc23)C[C@H]1C [Compound 87] | 4.1 nM |  |
| C=CC(=O)N1CCN(c2nc(=O)n(-c3c(C4CC4)nc(N4CCNCC4)nc3C3CC3)c3nc(-c4c(O)cccc4F)c(Cl)cc23)[C@@H](C)C1 [Compound 88] | 21.2 nM |  |
| C=CC(=O)N1CCN(c2nc(=O)n(-c3c(C4CC4)nc(N4CCN(C)CC4)nc3C3CC3)c3nc(-c4c(O)cccc4F)c(Cl)cc23)[C@@H](C)C1 [Compound 89] | 1.5 nM |  |
| C=CC(=O)N1CCN(c2nc(=O)n(-c3c(C4CC4)nc(N4CCN(C)CC4)nc3C3CC3)c3nc(-c4ccccc4F)c(Cl)cc23)[C@@H](C)C1 [Compound 91] | 7.8 nM |  |
| C=CC(=O)N1CCN(c2nc(=O)n(-c3c(C4CC4)nc(N4CCNCC4)nc3C3CC3)c3nc(-c4c(N)cccc4F)c(Cl)cc23)[C@@H](C)C1 [Compound 92] | 2.8 nM |  |
| C=CC(=O)N1CCN(c2nc(=O)n(-c3c(C4CC4)nc(N4CCN(C)CC4)nc3C3CC3)c3nc(-c4c(N)cccc4F)c(Cl)cc23)[C@@H](C)C1 [Compound 93] | 1.8 nM |  |
| C=CC(=O)N1C[C@H](C)N(c2nc(=O)n(-c3c(C(C)C)nc(N4CCNCC4)nc3C(C)C)c3nc(-c4ccccc4F)c(F)cc23)C[C@H]1C [Compound 94] | 37.5 nM |  |
| C=CC(=O)N1C[C@H](C)N(c2nc(=O)n(-c3c(C(C)C)nc(N4CCNCC4)nc3C(C)C)c3nc(-c4c(O)cccc4F)c(F)cc23)C[C@H]1C [Compound 95] | 14.6 nM |  |
| C=CC(=O)N1C[C@H](C)N(c2nc(=O)n(-c3c(C(C)C)nc(N4CCNCC4)nc3C(C)C)c3nc(-c4c(N)cccc4F)c(F)cc23)C[C@H]1C [Compound 96] | 10.8 nM |  |
| C=CC(=O)N1C[C@H](C)N(c2nc(=O)n(-c3c(C(C)C)nc(N4CCN(C)CC4)nc3C(C)C)c3nc(-c4c(N)cccc4F)c(F)cc23)C[C@H]1C [Compound 97] | 7.3 nM |  |
| C=CC(=O)N1C[C@H](C)N(c2nc(=O)n(-c3c(C4CC4)nc(N4CCNCC4)nc3C3CC3)c3nc(-c4c(N)cccc4F)c(F)cc23)C[C@H]1C [Compound 98] | 7.4 nM |  |
| C=CC(=O)N1CCN(c2nc(=O)n(-c3c(C)cc4c(ncn4C)c3C(C)C)c3nc(-c4c(N)cccc4F)c(Cl)cc23)[C@@H](C)C1 [Compound 152] |  | IC50: 0.4 nM |
| C=CC(=O)N1CCN(c2nc(=O)n(-c3c(C)nc4c(ncn4C)c3C(C)C)c3nc(-c4c(N)cccc4F)c(F)cc23)[C@@H](C)C1 [Compound 157] |  | IC50: 152 nM |

More lines, main results first:

| IC50 (Homo sapiens, NCI-H358, 120 h) | Structure (SMILES) | other results |
| --- | --- | --- |
| 5.8 nM | C=CC(=O)N1C[C@H](C)N(c2nc(=O)n(-c3c(C4CC4)nc(N4CCN(C)CC4)nc3C3CC3)c3nc(-c4c(N)cccc4F)c(F)cc23)C[C@H]1C [Compound 99] |  |
| 14.1 nM | C=CC(=O)N1C[C@H](C)N(c2nc(=O)n(-c3c(C4CC4)nc(N4CCNCC4)nc3C3CC3)c3nc(-c4c(O)cccc4F)c(F)cc23)C[C@H]1C [Compound 100] |  |
| 25.8 nM | C=CC(=O)N1C[C@H](C)N(c2nc(=O)n(-c3c(C4CC4)nc(N4CCN(C)CC4)nc3C3CC3)c3nc(-c4c(O)cccc4F)c(F)cc23)C[C@H]1C [Compound 101] |  |
| 37.4 nM | C=CC(=O)N1C[C@H](C)N(c2nc(=O)n(-c3c(C4CC4)nc(N4CCNCC4)nc3C3CC3)c3nc(-c4ccccc4F)c(F)cc23)C[C@H]1C [Compound 102] |  |
| 47.6 nM | C=CC(=O)N1C[C@H](C)N(c2nc(=O)n(-c3c(C4CC4)nc(N4CCN(C)CC4)nc3C3CC3)c3nc(-c4ccccc4F)c(F)cc23)C[C@H]1C [Compound 103] |  |
| 8.8 nM | C=CC(=O)N1CCN(c2nc(=O)n(-c3c(C(C)C)nc(C4CC4)nc3C(C)C)c3nc(-c4c(N)cccc4F)c(F)cc23)[C@@H](C)C1 [Compound 105] |  |
| 10.2 nM | C=CC(=O)N1CCN(c2nc(=O)n(-c3c(C(C)C)nc(N)nc3C(C)C)c3nc(-c4c(O)cccc4F)c(Cl)cc23)[C@@H](C)C1 [Compound 106] |  |
| 5.2 nM | C=CC(=O)N1C[C@H](C)N(c2nc(=O)n(-c3c(C(C)C)nc(N)nc3C(C)C)c3nc(-c4c(O)cccc4F)c(Cl)cc23)C[C@H]1C [Compound 107] |  |
| 46.5 nM | C=CC(=O)N1CCN(c2nc(=O)n(-c3c(C(C)C)nc(N)nc3C(C)C)c3nc(-c4c(O)cccc4F)c(F)cc23)[C@@H](C)C1 [Compound 108] |  |
| 12.3 nM | C=CC(=O)N1C[C@H](C)N(c2nc(=O)n(-c3c(C(C)C)nc(N)nc3C(C)C)c3nc(-c4c(O)cccc4F)c(F)cc23)C[C@H]1C [Compound 109] |  |
| 10.1 nM | C=CC(=O)N1CCN(c2nc(=O)n(-c3c(C4CC4)nc(N)nc3C3CC3)c3nc(-c4c(O)cccc4F)c(Cl)cc23)[C@@H](C)C1 [Compound 110] |  |
| 6.3 nM | C=CC(=O)N1C[C@H](C)N(c2nc(=O)n(-c3c(C4CC4)nc(N)nc3C3CC3)c3nc(-c4c(O)cccc4F)c(Cl)cc23)C[C@H]1C [Compound 111] |  |
| 32.1 nM | C=CC(=O)N1CCN(c2nc(=O)n(-c3c(C4CC4)nc(N)nc3C3CC3)c3nc(-c4c(O)cccc4F)c(F)cc23)[C@@H](C)C1 [Compound 112] |  |
| 48.5 nM | C=CC(=O)N1C[C@H](C)N(c2nc(=O)n(-c3c(C4CC4)nc(N)nc3C3CC3)c3nc(-c4c(O)cccc4F)c(F)cc23)C[C@H]1C [Compound 113] |  |
| 497 nM | C=CC(=O)N1C[C@H](C)N(c2nc(=O)n(-c3c(C4CC4)nc(C)nc3C3CC3)c3nc(-c4cccc5[nH]nc(N)c45)c(F)cc23)C[C@H]1C [Compound 114] |  |
| 4.6 nM | C=CC(=O)N1C[C@H](C)N(c2nc(=O)n(-c3c(C4CC4)nc(N4CCNCC4)nc3C3CC3)c3nc(-c4c(N)cccc4F)c(Cl)cc23)C[C@H]1C [Compound 115] |  |
| 15.8 nM | C=CC(=O)N1CCN(c2nc(=O)n(-c3c(C4CC4)nc(N4CCNCC4)nc3C3CC3)c3nc(-c4ccccc4F)c(Cl)cc23)[C@@H](C)C1 [Compound 116] |  |
| 12.9 nM | C=CC(=O)N1CCN(c2nc(=O)n(-c3c(C(C)C)nc4ocnc4c3C)c3nc(-c4ccccc4F)c(Cl)cc23)[C@@H](C)C1 [Compound 117] |  |
| 40.2 nM | C=CC(=O)N1CCN(c2nc(=O)n(-c3c(C(C)C)nc(C(F)(F)F)nc3C(C)C)c3nc(-c4c(N)cccc4F)c(F)cc23)[C@@H](C)C1 [Compound 118] |  |
| 9.6 nM | C=CC(=O)N1CCN(c2nc(=O)n(-c3c(C4CC4)nc(OC(F)F)nc3C3CC3)c3nc(-c4c(N)cccc4F)c(F)cc23)[C@@H](C)C1 [Compound 119] |  |
| 146 nM | C[C@H]1CN(C(=O)/C=C/CN2CC(F)C2)CCN1c1nc(=O)n(-c2c(C3CC3)ncnc2C2CC2)c2nc(-c3c(N)cccc3F)c(Cl)cc12 [Compound 120] |  |
| > 3000 nM | C=CC(=O)N1C[C@H](C)N(c2nc(=O)n(-c3c(C(C)C)nc(C(=O)O)nc3C(C)C)c3nc(-c4ccccc4F)c(F)cc23)C[C@H]1C [Compound 121] |  |
| > 3000 nM | C=CC(=O)N1C[C@H](C)N(c2nc(=O)n(-c3c(C(C)C)nc(C(=O)O)nc3C(C)C)c3nc(-c4c(O)cccc4F)c(F)cc23)C[C@H]1C [Compound 122] |  |
| > 3000 nM | C=CC(=O)N1C[C@H](C)N(c2nc(=O)n(-c3c(C(C)C)nc(C(=O)O)nc3C(C)C)c3nc(-c4c(N)cccc4F)c(F)cc23)C[C@H]1C [Compound 123] |  |
| 210 nM | C=C(F)C(=O)N1CCN(c2nc(=O)n(-c3c(C4CC4)ncnc3C3CC3)c3nc(-c4c(N)cccc4F)c(Cl)cc23)[C@@H](C)C1 [Compound 131] |  |
| 157 nM | C=C(F)C(=O)N1C[C@H](C)N(c2nc(=O)n(-c3c(C4CC4)ncnc3C3CC3)c3nc(-c4c(N)cccc4F)c(Cl)cc23)C[C@H]1C [Compound 132] |  |
| 58.7 nM | COC/C=C/C(=O)N1C[C@H](C)N(c2nc(=O)n(-c3c(C4CC4)ncnc3C3CC3)c3nc(-c4c(N)cccc4F)c(Cl)cc23)C[C@H]1C [Compound 140] |  |
